Measured values taken from patent publication US20040076974A1, “Liver necrosis predictive genes” (priority 2002, published 2004).
“And” between values parts separate entries of the source, which are not always exact repeats. Identical values can stand only once. Like-named read-outs stand apart in the source and are kept apart here.

Test system: toxicologically relevant rat genes (rat CT array)
[1] = 24 h, dose 20, ratio treatment/control, listed as PBARB
[2] = 24 h, dose 80, ratio treatment/control, listed as PBARB

Compound: CCC1(c2ccccc2)C(=O)NC(=O)NC1=O [phenobarbital]
- 3-hydroxyisobutyrate dehydrogenase [1]: 1.08 and 1.006
- 14-3-3 zeta [1]: 1.208 and 1.207
- 17-beta hydroxysteroid dehydrogenase, type 2 [1]: 1.581 and 1.324
- 60S ribosomal protein L6 [1]: 1.352 and 1.202
- ATPase inhibitor (rat mitochondrial IF1 protein) [1]: 0.6195 and 0.719
- Alpha 1 - inhibitor III [1]: 0.5583 and 0.815
- Alpha-2-macroglobulin [1]: 0.7668 and 0.9845
- Bax (alpha) [1]: 1.204 and 1.029
- Beta-actin [1]: 1.31 and 1.008
- Calpactin I heavy chain [1]: 1.101 and 1.191
- Carbamyl phosphate synthetase I [1]: 0.7852 and 0.892
- Carbonic anhydrase III [1]: 0.977 and 0.617
- Carbonyl reductase [1]: 0.9613 and 0.916
- Cathepsin L, sequence 2 [1]: 1.563 and 1.367
- Cofilin [1]: 0.9117
- Cyclin G [1]: 1
- DNA polymerase beta [1]: 1.056
- Dynamin-1 (D100) [1]: 0.8477 and 0.8322
- Endogenous retroviral sequence, 5′ and 3′ LTR [1]: 0.9945 and 0.7515
- Enolase alpha [1]: 1.238 and 0.9827
- Epidermal growth factor [1]: 0.8761 and 0.9811
- Equilbrative nitrobenzylthioinosine-sensitive nucleoside transporter [1]: 1.018 and 0.7905
- Extracellular-signal-regulated kinase 1 [1]: 1.131 and 0.7366
- Fas antigen [1]: 1.246 and 1.226
- Gadd45 [1]: 1.009 and 1.065
- Gadd153 [1]: 1.013 and 1.011
- Gamma-actin, cytoplasmic [1]: 1.054 and 0.8811
- Glucose-regulated protein 78 [1]: 1.261 and 1.059
- Heme oxygenase [1]: 0.9438 and 0.9315
- Hepatic lipase [1]: 0.6998 and 0.9047
- ID-1 [1]: 0.8693 and 1.008
- IgE binding protein [1]: 0.8925 and 0.9114
- IkB-a [1]: 1.305 and 0.9599
- Insulin-like growth factor I [1]: 0.7485 and 0.9327
- Insulin-like growth factor binding protein 1 [1]: 1.727 and 1.357
- Insulin-like growth factor binding protein 3 [1]: 0.8872 and 0.9985
- Integrin beta1 [1]: 1.272 and 1.092
- L-gulono-gamma-lactone oxidase [1]: 1.051 and 0.8183
- Liver fatty acid binding protein [1]: 1.109 and 1.478
- MAP kinase kinase [1]: 1.185
- Macrophage inflammatory protein-2 alpha [1]: 1.188 and 1.009
- Matrin F/G [1]: 1.181 and 1.074
- Matrix metalloproteinase-1 [1]: 1.164
- Melanoma-associated antigen ME491 [1]: 0.9925 and 1.119
- Monocyte chemotactic protein receptor (CCR2) [1]: 1.134
- Multidrug resistant protein-2 [1]: 1.635 and 1.128
- N-hydroxy-2-acetylaminofluorene sulfotransferase (ST1C1) [1]: 0.9899 and 0.8091
- Organic anion transporter 3 [1]: 1.248 and 1.132
- Organic cation transporter 3 [1]: 1.276 and 1.184
- Ornithine decarboxylase [1]: 1.253 and 1.099
- PAR interacting protein [1]: 1.254 and 1.247
- Phase-1 RCT 252 [1]: 0.9399
- Phase-1 RCT-15 [1]: 1.589
- Phase-1 RCT-33 [1]: 1.471
- Phase-1 RCT-36 [1]: 1.441
- Phase-1 RCT-39 [1]: 1.098 and 0.9997
- Phase-1 RCT-48 [1]: 0.8561
- Phase-1 RCT-49 [1]: 0.9102
- Phase-1 RCT-50 [1]: 1.003 and 0.9822
- Phase-1 RCT-83 [1]: 0.8335
- Phase-1 RCT-88 [1]: 0.963
- Phase-1 RCT-102 [1]: 0.6239
- Phase-1 RCT-117 [1]: 0.7039
- Phase-1 RCT-123 [1]: 0.9541
- Phase-1 RCT-127 [1]: 0.7569
- Phase-1 RCT-128 [1]: 0.7394 and 0.7417
- Phase-1 RCT-137 [1]: 0.7926
- Phase-1 RCT-179 [1]: 0.8634 and 0.9704
- Phase-1 RCT-181 [1]: 0.9556
- Phase-1 RCT-182 [1]: 0.8988
- Phase-1 RCT-189 [1]: 0.9743
- Phase-1 RCT-191 [1]: 1.518 and 1.291
- Phase-1 RCT-213 [1]: 1.105
- Phase-1 RCT-239 [1]: 0.8651
- Phase-1 RCT-242 [1]: 0.9504
- Phase-1 RCT-256 [1]: 0.9833
- Phase-1 RCT-258 [1]: 1.096
- Phase-1 RCT-264 [1]: 0.5841
- Phase-1 RCT-288 [1]: 0.674
- Proliferating cell nuclear antigen gene [1]: 1.31 and 0.9115
- Ribosomal protein L13A [1]: 1.101 and 1.176
- Ribosomal protein S8 [1]: 1.41 and 1.396
- Senescence marker protein-30 [1]: 0.7967 and 0.7544
- Sodium/bile acid cotransporter [1]: 1.606 and 1.619
- Superoxide dismutase Mn [1]: 1.251 and 1.032
- Thymosin beta-10 [1]: 1.095
- Transthyretin [1]: 0.579 and 0.7326
- Ubiquitin conjugating enzyme (RAD 6 homologue) [1]: 1.219 and 1.207
- Uncoupling protein 2 [1]: 1.028 and 0.9917
- Zinc finger protein [1]: 1.033 and 1.014
- c-jun [1]: 0.8724 and 0.8417
- c-myc [1]: 1.263 and 0.7701
- p53 [1]: 1.141 and 1.123
- {Ribosomal protein L6} [1]: 1.13 and 0.9995
- 3-hydroxyisobutyrate dehydrogenase [2]: 0.9364 and 1.012 and 0.9868
- 14-3-3 zeta [2]: 1.349 and 1.439 and 1.37
- 17-beta hydroxysteroid dehydrogenase, type 2 [2]: 0.7562 and 0.7908 and 0.9571
- 60S ribosomal protein L6 [2]: 1.307 and 1.425
- ATPase inhibitor (rat mitochondrial IF1 protein) [2]: 0.6848 and 0.7077 and 0.6801
- Aldehyde dehydrogenase, microsomal [2]: 1.087 and 1.048
- Alpha 1 - inhibitor III [2]: 0.5856 and 0.4905 and 0.5622
- Alpha-2-macroglobulin [2]: 0.9113 and 0.8593 and 0.9766
- Bax (alpha) [2]: 1.058 and 1.091 and 1.122
- Beta-actin [2]: 1.224 and 1.246 and 1.145
- Calpactin I heavy chain [2]: 1.134 and 1.063
- Carbamyl phosphate synthetase I [2]: 0.8575 and 0.7797 and 0.7692
- Carbonyl reductase [2]: 1.059 and 1.125 and 0.962
- Cathepsin L, sequence 2 [2]: 1.574 and 1.633
- Cofilin [2]: 0.9114 and 0.8537 and 0.8627
- Cyclin G [2]: 1.002 and 1.066 and 1.079
- DNA polymerase beta [2]: 1.046 and 1.107
- Dynamin-1 (D100) [2]: 0.9128 and 0.9717 and 0.9326
- Endogenous retroviral sequence, 5′ and 3′ LTR [2]: 1.21 and 0.7011 and 0.7797
- Enolase alpha [2]: 1.121 and 1.118 and 1.149
- Epidermal growth factor [2]: 1.003 and 1.092 and 1.144
- Equilbrative nitrobenzylthioinosine-sensitive nucleoside transporter [2]: 0.9518 and 0.8269 and 0.9012
- Extracellular-signal-regulated kinase 1 [2]: 1.5 and 1.071 and 0.8668
- Fas antigen [2]: 1.331 and 1.404 and 1.329
- Gadd45 [2]: 1.044 and 0.9552 and 1.022
- Gadd153 [2]: 1.008 and 0.989 and 0.9738
- Gamma-actin, cytoplasmic [2]: 1.252 and 1.167 and 1.207
- Glucose-regulated protein 78 [2]: 1.679 and 1.668 and 1.487
- Heme oxygenase [2]: 0.7677 and 0.7554 and 0.8649
- Hepatic lipase [2]: 0.7302 and 1.208 and 0.6736
- ID-1 [2]: 1.015 (2×) and 0.9098
- IgE binding protein [2]: 0.9374 and 0.898
- IkB-a [2]: 1.024 and 1.103 and 1.096
- Insulin-like growth factor I [2]: 0.6186 and 0.52 and 0.7677
- Insulin-like growth factor binding protein 1 [2]: 1.514 and 1.628
- Insulin-like growth factor binding protein 3 [2]: 0.6158 and 0.8747
- Integrin beta1 [2]: 1.29 and 1.37 and 1.335
- L-gulono-gamma-lactone oxidase [2]: 0.6365 and 0.6402 and 0.7055
- Liver fatty acid binding protein [2]: 0.8038 and 0.7393 and 0.8984
- MAP kinase kinase [2]: 1.002 and 1.108
- Macrophage inflammatory protein-2 alpha [2]: 1.093 and 1.12 and 1.177
- Matrin F/G [2]: 0.9519 and 0.9552 and 1.004
- Matrix metalloproteinase-1 [2]: 1.245 and 1.194 and 1.355
- Melanoma-associated antigen ME491 [2]: 1.089 and 0.9854 and 1.045
- Monocyte chemotactic protein receptor (CCR2) [2]: 1.034 and 1.086 and 1.071
- Multidrug resistant protein-2 [2]: 1.301 and 1.556 and 1.405
- N-hydroxy-2-acetylaminofluorene sulfotransferase (ST1C1) [2]: 0.7492 and 0.7954 and 0.8182
- Nucleoside diphosphate kinase beta isoform [2]: 1.36 and 1.288 and 1.362
- Organic anion transporter 3 [2]: 1.251 and 1.195 and 1.053
- Organic cation transporter 3 [2]: 1.211 and 1.277 and 1.36
- Ornithine decarboxylase [2]: 1.262 and 1.294 and 1.161
- PAR interacting protein [2]: 1.196 and 1.432 and 1.205
- Phase-1 RCT 252 [2]: 0.772 and 0.7405
- Phase-1 RCT-15 [2]: 1
- Phase-1 RCT-33 [2]: 1.288
- Phase-1 RCT-37 [2]: 1.101
- Phase-1 RCT-39 [2]: 1.631 and 1.876 and 2.263
- Phase-1 RCT-40 [2]: 0.9657 and 1.099
- Phase-1 RCT-48 [2]: 0.6407
- Phase-1 RCT-72 [2]: 0.9031 and 0.8598
- Phase-1 RCT-83 [2]: 0.7773
- Phase-1 RCT-88 [2]: 0.8891
- Phase-1 RCT-89 [2]: 0.9166
- Phase-1 RCT-102 [2]: 0.7133 and 0.4783 and 0.5208
- Phase-1 RCT-123 [2]: 0.9384 and 1.104
- Phase-1 RCT-137 [2]: 0.8817
- Phase-1 RCT-154 [2]: 1.303
- Phase-1 RCT-180 [2]: 1.296
- Phase-1 RCT-181 [2]: 0.9889
- Phase-1 RCT-182 [2]: 0.9123
- Phase-1 RCT-189 [2]: 0.8764 and 0.754 and 0.6881
- Phase-1 RCT-191 [2]: 1.599
- Phase-1 RCT-214 [2]: 0.9342 and 1.408
- Phase-1 RCT-239 [2]: 0.5982 and 0.595
- Phase-1 RCT-241 [2]: 1.293
- Phase-1 RCT-242 [2]: 0.9855 and 0.8679 and 0.8934
- Phase-1 RCT-256 [2]: 0.8602
- Phase-1 RCT-264 [2]: 0.5789 and 0.5647 and 0.5936
- Phase-1 RCT-270 [2]: 0.9344 and 0.9311
- Phase-1 RCT-271 [2]: 1.204 and 1.753
- Phase-1 RCT-291 [2]: 1.285
- Phase-1 RCT-296 [2]: 0.8165
- Proliferating cell nuclear antigen gene [2]: 1.007 and 0.9415 and 1.108
- Ribosomal protein L13A [2]: 1.209 and 1.299
- Ribosomal protein S8 [2]: 1.309 and 1.3 and 1.45
- Ribosomal protein S17 [2]: 1.52
- Senescence marker protein-30 [2]: 0.4601 and 0.4705 and 0.6829
- Sodium/bile acid cotransporter [2]: 2.871 and 2.806 and 2.757
- Superoxide dismutase Mn [2]: 1.266 and 1.52 and 1.416
- Thymosin beta-10 [2]: 0.9766 and 1.212
- Transthyretin [2]: 0.5528 and 0.5255 and 0.5896
- Ubiquitin conjugating enzyme (RAD 6 homologue) [2]: 1.202 and 1.253 and 1.239
- Uncoupling protein 2 [2]: 1.015 and 0.8977 and 1.15
- Zinc finger protein [2]: 0.9857 and 1.001 and 0.984
- c-jun [2]: 0.6641 and 0.6214 and 0.6871
- c-myc [2]: 1.056 and 0.76 and 0.7591
- p53 [2]: 1.049 and 1.111 and 0.9729
- {Ribosomal protein L6} [2]: 1.301
- Paraoxonase 1 (rat, in vivo): 0.7914 and 0.865 and 0.7219 and 0.8315 and 0.967
